Reference: patent US20230339949A1, “HETEROCYCLIC SUBSTITUTED FUSED y-CARBOLINE DERIVATIVE, PREPARATION METHOD THEREFOR, INTERMEDIATE THEREOF AND USE THEREOF” (SHUJING BIOPHARMA CO., LTD, priority 2020, published 2023)
Where two headings read alike, the source gives them in different places.

Tests used:
[1] = molecular target: T1, D2L receptor (Homo sapiens, UniProt P14416); test: Functional activity test on D2L receptor, cAMP detection (Gi antagonist test); type: cell-based; conditions: cryopreserved CHO-K1/D2L/Gα15 cells, forskolin + dopamine EC90
T1 construct: expressed in transfected cells
Description: (§1) The antagonistic effects of the compounds of the present disclosure on D2L and D2S receptors were detected by cyclic adenosine monophosphate (cAMP) detection method at cell-level.
(§2) • (1) Test compound: compounds of the embodiment of the present disclosure, self-made. • (2) Control compound: dopamine hydrochloride (Sigma, H8502), (+)-Butaclamol hydrochloride (Sigma, D033). • (3) Stable cell line:
(§3) • (1) Preparation of test compounds: the compounds of the embodiments of the present disclosure were respectively dissolved in DMSO to prepare 10 mM mother liquor, and the mother liquor was stored in the nitrogen cabinet for later use. • (2) Preparation of control compound: the control compound was dissolved in DMSO to prepare 10 mM mother liquor, and the mother liquor was repackaged and stored in the refrigerator at −80° C. for later use. • (3) IBMX was dissolved in DMSO to prepare 0.5 M stock solution and the stock solution was cryopreserved at −80° C. • (4) Forskolin was dissolved in DMSO to prepare 1 mM stock solution and the stock solution was cryopreserved at −80° C. for later use. • (5) Experimental buffer: 5× stimulation buffer was diluted to 1× with ddH2O and IBMX with a final concentration of 0.5 mM was added thereto, and the solution was mixed well for later use.
(§4) • (1) Preparation of compounds: the test compounds and positive control compound (+)-Butaclamol hydrochloride were diluted gradient using Bravo in the compound plate (Greiner-781280), and the initial concentration of working solution was 20 μM, and the working solution was diluted at 4-fold for 10 concentrations and centrifuged at 1000 rpm for 1 minute for later use. • (2) Cryopreserved D2L cells: cells was taken out from the liquid nitrogen tank and thaw in a water bath at 37° C., and the cell suspension was transferred to a centrifuge tube containing HBSS buffer, and centrifuged at 750 rpm for 5 minutes.
(§5) Cultured D2S cells: after absorbing the culture medium, the cells were washed with 3 mL PBS, sucked out, digested with 0.05% Trypsin for 3 min, terminated with equal volume of culture medium, transferred to centrifuge tube, and centrifuged at 750 rpm for 5 minutes. After absorbing the liquid, the centrifuge tube was added with a buffer solution containing HBSS and re-suspend, and centrifuged at 750 rpm for 5 minutes. • (3) The supernatant was discarded, and the precipitate was re-suspended with proper amount of experimental buffer, and 20 μL was taken for cell counting. • (4) Appropriate amount of cell suspension was removed, and the cell suspension was diluted to 2×10^5 cells/mL with experimental buffer, and the cell plate (PerkinElmer-6008280) was added with 5 μL/well cell suspension, and centrifuged at 1000 rpm for 1 minute. • (5) 5 μL/well was transferred to the cell plate with Bravo, and the cell plate was centrifuged at 1000 rpm for 1 minute, then the cell plate was closed and incubated at room temperature for 15 minutes. • (6) Forskolin was transferred to the cell plate with Tecan-D300e, and Dopamine hydrochloride with a final concentration of EC90 was transferred to the cell plate. • (7) The cell plate was centrifuged at 1000 rpm for 1 minute, then sealed and incubated at room temperature for 45 minutes. • (8) Standard curve: cAMP with the stock solution concentration of 2848 nM was diluted 4-fold continuously at 8 points according to the initial maximum concentration of 712 nM, and 10 μL/well was taken out to add to the cell plate. • (9) 10 μL/well of detection solution containing cAMP-d2 and Anti-cAMP-Cryptate (diluted with pyrolysis buffer at 1:20) was added to the cell plate, and the cell plate was centrifuged at 1000 rpm for 1 minute, and incubated at room temperature without light for 1 hour. • (10) Detection: the cell plate was centrifuged at 1000 rpm for 1 minute, and the plate was read with Envision (excitation light 340 nm, emission light 620 nm and 665 nm). […]

[2] = molecular target: T2, D2S receptor (Homo sapiens, UniProt P14416); test: Functional activity test on D2S receptor, cAMP detection (Gi antagonist test); type: cell-based; conditions: cultured HEK293/D2S cells, forskolin + dopamine EC90
T2 construct: expressed in transfected cells
Description: as §1, §2, §3, §4, §5

[3] = system: MK-801 induced hyperactivity behavior; test: MK-801 induced hyperactivity behavior in mice; type: in vivo, ICR mice; conditions: for ED50: Mus musculus, read-out: ED50 (half effective dose)
Experimental: The efficacy of the compounds of the present disclosure was evaluated by high activity model of mice induced by intraperitoneal injection of MK-801.
Experimental animals: ICR mice, male, 8 mice/group, Spelford (Beijing) Biotechnology Co., Ltd.
Preparation of drug: the test compounds were taken, and pure water was added, and ultrasonication was performed.
Administration route and method: gavage administration, 10 mL/kg (body weight).
Administration frequency and duration: single dose.
Animals were stratified by body weight and then randomly divided into blank group, model group, and administration group, and detailed information of administration is shown in the following table.
Mice were stratified according to body weight and then randomly divided into model group, blank group and each administration group. One hour after the gavage administration of solvent or drug, 0.3 mg/kg MK-801 was injected intraperitoneally (the blank group was injected with the same volume of physiological saline), and then the mice were put into an independent activity box (a black polyethylene box with the specification of 29 cm×29 cm×30 cm) for video recording for 60 minutes, and video analysis was performed at the end of the recording to evaluate the activity of the mice.
The experimental data were expressed as x±SD, and SPSS statistical software was used to test the homogeneity of variance. If the variance was homogeneous, single factor analysis of variance was performed, and Dunnett t test is used for pairwise comparison. The ED50 was calculated by nonlinear fitting with GraphPad Primis5 software.

[4] = male ICR mice, single gavage dose 1 h before MK-801 0.3 mg/kg i.p., activity recorded 60 min

T2 sequence (P14416 1-414 isoform P14416-2): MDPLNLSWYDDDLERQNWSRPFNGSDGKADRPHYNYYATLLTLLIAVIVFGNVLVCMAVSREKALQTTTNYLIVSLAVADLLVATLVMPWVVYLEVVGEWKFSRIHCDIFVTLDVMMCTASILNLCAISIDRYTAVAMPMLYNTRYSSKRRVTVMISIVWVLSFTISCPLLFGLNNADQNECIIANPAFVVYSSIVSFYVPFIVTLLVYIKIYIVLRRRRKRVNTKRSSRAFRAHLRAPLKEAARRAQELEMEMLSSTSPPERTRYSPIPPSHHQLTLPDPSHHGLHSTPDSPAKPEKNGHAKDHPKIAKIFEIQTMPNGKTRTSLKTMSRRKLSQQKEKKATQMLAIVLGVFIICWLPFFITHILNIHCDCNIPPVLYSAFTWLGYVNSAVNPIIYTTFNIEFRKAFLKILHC
T1 sequence (P14416 whole entry): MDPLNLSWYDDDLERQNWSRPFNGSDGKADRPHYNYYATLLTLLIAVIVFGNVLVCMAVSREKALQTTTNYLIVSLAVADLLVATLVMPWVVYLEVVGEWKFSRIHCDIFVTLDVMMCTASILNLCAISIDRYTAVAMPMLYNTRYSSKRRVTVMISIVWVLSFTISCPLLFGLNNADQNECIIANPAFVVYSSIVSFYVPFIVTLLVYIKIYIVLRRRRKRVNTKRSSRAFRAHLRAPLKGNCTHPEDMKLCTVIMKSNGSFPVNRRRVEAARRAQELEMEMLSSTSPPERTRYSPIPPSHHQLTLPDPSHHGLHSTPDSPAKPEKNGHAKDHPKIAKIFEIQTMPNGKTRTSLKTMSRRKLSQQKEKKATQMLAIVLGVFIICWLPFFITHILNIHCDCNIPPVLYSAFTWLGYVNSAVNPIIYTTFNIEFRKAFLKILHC

IC50 [1] [nM] | IC50 [2] [nM] | SMILES | ED50 [3, 4] [mg/kg] | MED (lowest effective dose) [3, 4] [mg/kg] | ED50 [3] [mg/kg]
30.9 | 261 | CN1C(=O)CN2c3c1cccc3[C@]1(C)CN(CCCC(=O)c3ccc(F)cc3)CC[C@H]21 [Embodiment 1-A, (6bR,10aS)-8-(4-(4-fluorophenyl)-4-oxobutyl)-3,6b-dimethyl-6b,7,8,9,10,10a-hexahydro-1H-pyrido[3′,4′:4,5]pyrrolo [1,2,3-de]quinoxalin-2(3H)-one] | 0.08 | 0.03 | –
131 | 344 | CN1CCN2c3c(cccc31)[C@@H]1CN(CCCC(=O)c3ccc(F)cc3)CC[C@@H]12 [ITI-007, Lumateperone, reference compound] | 1.03 | 1 | –

SMILES | IC50 [1] [nM] | IC50 [2] [nM] | ED50 [3, 4] [mg/kg] | MED (lowest effective dose) [3, 4] [mg/kg] | ED50 [3] [mg/kg]
CN1C(=O)CN2c3c1cccc3C1(C)CN(CCCC(=O)c3ccc(F)cc3)CCC21 (stereo not drawn) [Embodiment 1, 8-(4-(4-fluorophenyl)-4-oxobutyl)-3,6b-dimethyl-6b,7,8,9,10,10a-hexahydro-1H-pyrido[3′,4′:4,5]pyrrolo[1,2,3-de]quinoxalin-2(3H)-one] | 20.3 | 95.4 | – | 0.1 | 0.11
